Experimental findings from ChEMBL document CHEMBL1140020, “Synthesis and biological evaluation of 4'-(6,7-disubstituted-2,4-dihydro-indeno[1,2-c]pyrazol-3-yl)-biphenyl-4-ol as potent Chk1 inhibitors” (Bioorg Med Chem Lett, 2007) are described below.

For one experiment, the system named is HeLa. The experiment is described as follows: Cytotoxicity against HeLa cells by MTS assay. Type of experiment: cell-based. Conditions: Homo sapiens.
The nature of experiment [1]: Cell cycle arrest in H1299 cells by accumulation at G2/M phase by FACS analysis. It is filed as functional, cell-based. Conditions: Homo sapiens, NCI-H1299.
For a further experiment, the system named is NCI-H1299. Briefly: Inhibition of doxorubicin-induced cell cycle arrest in H1299 cells by accumulation at G2/M phase by FACS analysis. Type of experiment: functional, cell-based. The conditions noted are these: Homo sapiens.
In a further experiment the test system is SW-620. The experiment is described as follows: Inhibition of camptothecin-induced cell cycle arrest in SW620 cells by accumulation at S phase by FACS analysis. The conditions noted are these: Homo sapiens. Type of experiment: functional, cell-based.
Experiment [2] addresses T1, Serine/threonine-protein kinase Chk1 (Homo sapiens, UniProt O14757).
T1 sequence (O14757 whole entry): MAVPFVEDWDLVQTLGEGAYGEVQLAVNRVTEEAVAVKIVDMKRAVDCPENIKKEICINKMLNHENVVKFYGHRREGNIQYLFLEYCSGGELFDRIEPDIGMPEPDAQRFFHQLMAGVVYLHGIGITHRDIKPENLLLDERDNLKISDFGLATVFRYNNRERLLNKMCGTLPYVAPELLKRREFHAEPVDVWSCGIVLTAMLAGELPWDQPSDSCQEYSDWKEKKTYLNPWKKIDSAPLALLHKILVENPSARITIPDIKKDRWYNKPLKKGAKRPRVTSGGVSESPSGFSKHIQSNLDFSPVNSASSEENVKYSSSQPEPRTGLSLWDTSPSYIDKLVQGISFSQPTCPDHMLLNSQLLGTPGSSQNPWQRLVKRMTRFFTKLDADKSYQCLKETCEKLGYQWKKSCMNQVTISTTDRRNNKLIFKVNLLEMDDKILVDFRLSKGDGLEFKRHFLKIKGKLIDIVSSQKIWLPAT
Briefly: Inhibition of Chk1.

Activity calls are given as the source filed them. The rule behind the calls is not given here. Bounds are passed on as bounds.

For `COc1cc2c(cc1OC)-c1n[nH]c(-c3ccc(-c4ccc(O)cc4)cc3)c1C2`, the results for the EC50 (in the experiment on HeLa; in experiment [1]; with NCI-H1299) were above 59.3 µM, above 50 µM and 200 nM, respectively. Besides, in the experiment with SW-620, the result was Active. Compound `COc1cc2c(cc1OC(CO)CO)Cc1c-2n[nH]c1-c1ccc(-c2ccc(O)cc2)cc1` gave an IC50 in experiment [2] below 0.1 nM. Regarding `COc1cc2c(cc1OCCc1cccnc1)Cc1c(-c3ccc(-c4ccc(O)cc4)cc3)n[nH]c1-2`, in experiment [2], the IC50 was 13 nM. Same read-out and setting: for `COc1cc2c(cc1OCCC1CCCN1C)-c1[nH]nc(-c3ccc(-c4ccc(O)cc4)cc3)c1C2` (stereo unspecified) the value was 0.8 nM; for `COc1cc2c(cc1OCCN1CCCCC1)Cc1c-2n[nH]c1-c1ccc(-c2ccc(O)cc2)cc1`, 1 nM. For `COc1cc2c(cc1OCCCN1CCCCC1)Cc1c-2n[nH]c1-c1ccc(-c2ccc(O)cc2)cc1`, 4 nM corresponded to half-maximal inhibition in experiment [2] (IC50). Also, the EC50 is 2.3 µM with HeLa, above 10 µM in experiment [1] and 400 nM in the experiment with NCI-H1299. As to `COc1cc2c(cc1OCc1cccnc1)Cc1c-2n[nH]c1-c1ccc(-c2ccc(O)cc2)cc1`, in experiment [2], the 50% inhibitory concentration (IC50) came out at 18 nM. The same compound registered an EC50 with HeLa above 59.3 µM. `COc1cc2c(cc1OCCCN1CCN(c3cccc(Cl)c3)CC1)Cc1c-2n[nH]c1-c1ccc(-c2ccc(O)cc2)cc1` yielded an IC50 in experiment [2] of 8 nM. In the case of `COc1cc2c(cc1OCc1ccncc1)-c1[nH]nc(-c3ccc(-c4ccc(O)cc4)cc3)c1C2`, the IC50 in experiment [2] was determined as 36 nM.

The compound `COc1cc2c(cc1OCCN1CCCC1)Cc1c(-c3ccc(-c4ccc(O)cc4)cc3)n[nH]c1-2` came in with an IC50 in experiment [2] of 0.8 nM.

Regarding `COc1cc2c(cc1OCCN1CCCC1)-c1[nH]nc(-c3ccc(-c4ccc(O)cc4)cc3)c1C2`, in experiment [2], it took 2 nM to reach half-maximal inhibition (IC50). In the case of `COc1cc2c(cc1OC(C)CN(C)C)-c1n[nH]c(-c3ccc(-c4ccc(O)cc4)cc3)c1C2` (stereo unspecified), the IC50 in experiment [2] worked out at 2 nM. With `COc1cc2c(cc1OCCN1CCOCC1)-c1n[nH]c(-c3ccc(-c4ccc(O)cc4)cc3)c1C2`, the IC50 in experiment [2] stood at 5 nM. With `COc1cc2c(cc1OCCn1ccnc1)Cc1c-2n[nH]c1-c1ccc(-c2ccc(O)cc2)cc1`, in experiment [2], inhibition was half-maximal at 5 nM (IC50). `COc1cc2c(cc1OC[C@H]1CC=CCC1)Cc1c-2n[nH]c1-c1ccc(-c2ccc(O)cc2)cc1`: the IC50 in experiment [2] was found to be 0.7 nM.

`COc1cc2c(cc1OCCCN1CCN(c3ccccc3OC)CC1)Cc1c(-c3ccc(-c4ccc(O)cc4)cc3)n[nH]c1-2` showed a 50% inhibitory concentration (IC50) in experiment [2] of 25 nM. For `COc1cc2c(cc1OC(F)(F)F)-c1[nH]nc(-c3ccc(-c4ccc(O)cc4)cc3)c1C2`, in experiment [2], the IC50 turned out to be 290 nM.

On to `COc1cc2c(cc1OCCCN(C)C)Cc1c-2n[nH]c1-c1ccc(-c2ccc(O)cc2)cc1`, for which the IC50 in experiment [2] came out at 0.7 nM. Also, in the experiment on HeLa, the half-maximal effective concentration (EC50) is 0.8 µM. On to `COc1cc2c(cc1O)Cc1c(-c3ccc(-c4ccc(O)cc4)cc3)n[nH]c1-2`, for which inhibition in experiment [2] was half-maximal at 1 nM (IC50). Regarding `COc1cc2c(cc1OCc1cccnc1)-c1n[nH]c(-c3ccc(-c4ccc(O)cc4)cc3)c1C2`, inhibition in experiment [2] was half-maximal at 23 nM (IC50). The concentration for a half-maximal effect (EC50) with HeLa was 35.2 µM; in experiment [1], above 50 µM; in the experiment with NCI-H1299, 300 nM.

`CCN1CCCC(Oc2cc3c(cc2OC)Cc2c-3n[nH]c2-c2ccc(-c3ccc(O)cc3)cc2)C1` (stereo unspecified): 0.6 nM corresponded to half-maximal inhibition in experiment [2] (IC50). The compound `COc1cc2c(cc1OCc1ccccn1)Cc1c(-c3ccc(-c4ccc(O)cc4)cc3)n[nH]c1-2` came in with an IC50 in experiment [2] of 20 nM.

`COc1cc2c(cc1OCCc1ccccn1)Cc1c-2n[nH]c1-c1ccc(-c2ccc(O)cc2)cc1` yielded an IC50 in experiment [2] of 30 nM. Further, the EC50 in the experiment on HeLa was 3.4 µM; in experiment [1], above 10 µM; in the experiment with NCI-H1299, 600 nM. Turning to `COc1cc2c(cc1OCCc1ccncc1)Cc1c-2n[nH]c1-c1ccc(-c2ccc(O)cc2)cc1`, it took 5 nM to reach half-maximal inhibition in experiment [2] (IC50). Compound `COc1cc2c(cc1OC1CCOCC1)Cc1c(-c3ccc(-c4ccc(O)cc4)cc3)n[nH]c1-2` displayed an IC50 in experiment [2] of 0.2 nM. In experiment [2], `COc1cc2c(cc1OCCN(C)C)Cc1c-2n[nH]c1-c1ccc(-c2ccc(O)cc2)cc1` returned an IC50 of 2 nM.

In experiment [2], `COc1cc2c(cc1OC[C@@H](O)CO)Cc1c-2n[nH]c1-c1ccc(-c2ccc(O)cc2)cc1` gave an IC50 of 0.1 nM. For the same compound, a half-maximal response with HeLa (EC50) required 3.5 µM. In experiment [2], `COc1cc2c(cc1OCC1CCOC1)Cc1c-2n[nH]c1-c1ccc(-c2ccc(O)cc2)cc1` (stereo unspecified) showed a concentration for half-maximal inhibition (IC50) of 0.8 nM. Turning to `COc1cc2c(cc1OCC(C)CN(C)C)-c1n[nH]c(-c3ccc(-c4ccc(O)cc4)cc3)c1C2` (stereo unspecified), the IC50 in experiment [2] is 0.6 nM. This compound also yielded a concentration giving a half-maximal response (EC50) in the experiment on HeLa of 1.6 µM. Compound `COc1cc2c(cc1OC(=O)NCCN1CCCC1)-c1[nH]nc(-c3ccc(-c4ccc(O)cc4)cc3)c1C2` gave an IC50 in experiment [2] of 21 nM. For `CCc1ccc(CCOc2cc3c(cc2OC)-c2n[nH]c(-c4ccc(-c5ccc(O)cc5)cc4)c2C3)nc1`, 23 nM corresponded to half-maximal inhibition in experiment [2] (IC50). For the same compound, the EC50 was 29.4 µM in the experiment on HeLa, above 10 µM in experiment [1] and 500 nM in the experiment with NCI-H1299. Compound `COc1cc2c(cc1OC1CCOC1)Cc1c-2n[nH]c1-c1ccc(-c2ccc(O)cc2)cc1` (stereo unspecified) yielded an IC50 in experiment [2] of 0.4 nM. In the experiment on HeLa, this compound showed an EC50 of 49 µM. The like results for `COc1cc2c(cc1OCCn1ccnc1)-c1n[nH]c(-c3ccc(-c4ccc(O)cc4)cc3)c1C2` were, in that order, 3 nM and 1.9 µM. As to `COc1cc2c(cc1CCOCCCc1cccc(C)n1)Cc1c-2n[nH]c1-c1ccc(-c2ccc(O)cc2)cc1`, the midpoint of inhibition in experiment [2], the IC50, lay at 62 nM. Further, the EC50 in the experiment on HeLa is 4.1 µM; in experiment [1], above 10 µM; in the experiment with NCI-H1299 it was 400 nM.

With `COc1cc2c(cc1OCC[C@@H]1CCCN1)Cc1c(-c3ccc(-c4ccc(O)cc4)cc3)n[nH]c1-2`, the IC50 in experiment [2] stood at 2 nM. In turn, `COc1cc2c(cc1OC(C)CN(C)C)Cc1c-2n[nH]c1-c1ccc(-c2ccc(O)cc2)cc1` (stereo unspecified) registered an IC50 in experiment [2] of 2 nM. In the case of `COc1cc2c(cc1OCc1ccccn1)-c1n[nH]c(-c3ccc(-c4ccc(O)cc4)cc3)c1C2`, in experiment [2], the IC50 worked out at 24 nM. The EC50 with HeLa is above 59.3 µM; in experiment [1], above 50 µM; in the experiment on NCI-H1299 it was 800 nM. `COc1cc2c(cc1OC(=O)NCCN1CCOCC1)-c1[nH]nc(-c3ccc(-c4ccc(O)cc4)cc3)c1C2`: the IC50 in experiment [2] was 74 nM.

`COc1cc2c(cc1OC(=O)NCCN(C)C)-c1[nH]nc(-c3ccc(-c4ccc(O)cc4)cc3)c1C2` returned an IC50 in experiment [2] of 40 nM. Compound `CCN(CC)CC(CN(CC)CC)Oc1cc2c(cc1OC)Cc1c(-c3ccc(-c4ccc(O)cc4)cc3)n[nH]c1-2` returned an IC50 in experiment [2] of 2 nM.

Compound `COc1cc2c(cc1O)-c1[nH]nc(-c3ccc(-c4ccc(O)cc4)cc3)c1C2` had a half-maximal inhibitory concentration (IC50) in experiment [2] of 5 nM.

Take `COc1cc2c(cc1OCCN(C)C)-c1[nH]nc(-c3ccc(-c4ccc(O)cc4)cc3)c1C2`: the IC50 in experiment [2] came out at 0.8 nM. In experiment [2], `COc1cc2c(cc1OCCCN1CCOCC1)Cc1c-2n[nH]c1-c1ccc(-c2ccc(O)cc2)cc1` showed an IC50 of 6 nM. Further, the EC50 with HeLa was 4.3 µM. Turning to `COc1cc2c(cc1OCCCN1CCN(c3cccc(Cl)c3)CC1)-c1n[nH]c(-c3ccc(-c4ccc(O)cc4)cc3)c1C2`, half-maximal inhibition in experiment [2] (IC50) required 10 nM.

Consider `COc1cc2c(cc1OCc1ccncc1)Cc1c-2n[nH]c1-c1ccc(-c2ccc(O)cc2)cc1`, for which the IC50 in experiment [2] was found to be 8 nM. This compound also registered an EC50 in the experiment with HeLa of 3.2 µM.

In the case of `COc1cc2c(cc1OCCN1CCOCC1)Cc1c(-c3ccc(-c4ccc(O)cc4)cc3)n[nH]c1-2`, in experiment [2], the midpoint of inhibition, the IC50, lay at 2 nM.

As for `COc1cc2c(cc1OC(=O)NCc1ccccn1)-c1[nH]nc(-c3ccc(-c4ccc(O)cc4)cc3)c1C2`, in experiment [2], the IC50 was 48 nM. With `COc1cc2c(cc1OCCCN1CCN(C)CC1)-c1n[nH]c(-c3ccc(-c4ccc(O)cc4)cc3)c1C2`, the IC50 in experiment [2] was 0.2 nM.

On to `COc1cc2c(cc1OC[C@H](O)CO)Cc1c-2n[nH]c1-c1ccc(-c2ccc(O)cc2)cc1`, for which the IC50 in experiment [2] stood at 0.1 nM. The EC50 with HeLa is 7.7 µM; in experiment [1], above 50 µM; in the experiment on NCI-H1299, 200 nM.
